Active and inactive are the calls of the source. The rule behind the calls is not given here.
Key:
[1] = system: Human immunodeficiency virus 1; assay: Antiviral activity against HIV1 89.6 infected in human PBMC assessed as inhibition of viral p24 antigen production after 7 to 10 days by ELISA; assay type: functional, organism-based; conditions: Human immunodeficiency virus 1, 89.6
[2] = system: Human immunodeficiency virus 1; assay: Antiviral activity against HIV1 A018H infected in human PBMC assessed as inhibition of viral p24 antigen production after 7 to 10 days by ELISA; assay type: functional, organism-based; conditions: Human immunodeficiency virus 1, A018H
[3] = system: Human immunodeficiency virus 1; assay: Antiviral activity against HIV1 NL4-3 infected in HEK293 cells assessed as inhibition of viral replication after 2 days; assay type: functional, organism-based; conditions: Human immunodeficiency virus 1, NL4-3, HEK293, 48 h
[4] = system: Human immunodeficiency virus 1; assay: Antiviral activity against HIV1 HXB2 infected in HEK293 cells assessed as inhibition of viral replication after 2 days; assay type: functional, organism-based; conditions: Human immunodeficiency virus 1, HXB2, HEK293, 48 h
[5] = system: Human immunodeficiency virus 1; assay: Antiviral activity against NRTI-resistant HIV1 HXB2 infected in HEK293 cells assessed as inhibition of viral replication after 2 days; assay type: functional, organism-based; conditions: Human immunodeficiency virus 1, HXB2, HEK293, 48 h
[6] = system: Human immunodeficiency virus 1; assay: Antiviral activity against NNRTI-resistant HIV1 HXB2 infected in HEK293 cells assessed as inhibition of viral replication after 2 days; assay type: functional, organism-based; conditions: Human immunodeficiency virus 1, HXB2, HEK293, 48 h
[7] = system: Human immunodeficiency virus 1; assay: Antiviral activity against PI-resistant HIV1 HXB2 infected in HEK293 cells assessed as inhibition of viral replication after 2 days; assay type: functional, organism-based; conditions: Human immunodeficiency virus 1, HXB2, HEK293, 48 h
[8] = target: T1, C-X-C chemokine receptor type 4 (Homo sapiens, UniProt P61073); assay: Displacement of [125I]SDF-1alpha form CXCR4 expressed in CHO cells by scintillation counting; assay type: cell-based
[9] = system: Human immunodeficiency virus 1; assay: Antiviral activity against multidrug resistant HIV1 HXB2 infected in HEK293 cells assessed as inhibition of viral replication after 2 days; assay type: functional, organism-based; conditions: Human immunodeficiency virus 1, HXB2, HEK293, 48 h
[10] = system: Human immunodeficiency virus 1; assay: Antiviral activity against T20-resistant HIV1 NL4-3 infected in HEK293 cells assessed as inhibition of viral replication after 2 days; assay type: functional, organism-based; conditions: Human immunodeficiency virus 1, NL4-3, HEK293, 48 h
[11] = target: C-C chemokine receptor type 1 (Homo sapiens) (UniProt P32246); assay: Displacement of [125I]RANTES form CCR1 expressed in CHO cells by scintillation counting; assay type: cell-based
[12] = target: C-C chemokine receptor type 2 (Homo sapiens) (UniProt P41597); assay: Displacement of [125I]MCP1 form CCR2b expressed in CHO cells by scintillation counting; assay type: cell-based
[13] = target: C-C chemokine receptor type 4 (Homo sapiens) (UniProt P51679); assay: Displacement of [125I]TARC form CCR4 expressed in CHO cells by scintillation counting; assay type: cell-based
[14] = target: C-C chemokine receptor type 5 (Homo sapiens) (UniProt P51681); assay: Displacement of [125I]RANTES form CCR5 expressed in CHO cells by scintillation counting; assay type: cell-based
[15] = target: C-X-C chemokine receptor type 1 (Homo sapiens) (UniProt P25024); assay: Displacement of [125I]IL8 form CXCR1 expressed in CHO cells by scintillation counting; assay type: cell-based
[16] = target: T1, C-X-C chemokine receptor type 4; assay: Inhibition of Mab 12G5 binding to CXCR4 expressed in human MOLT4 cells at 10 nM measured post drug washout by FACS analysis; assay type: cell-based; conditions: MOLT-4
[17] = target: T1, C-X-C chemokine receptor type 4; assay: Inhibition of Mab 12G5 binding to CXCR4 expressed in human MOLT4 cells at 10 nM measured after 6 hrs post drug washout by FACS analysis; assay type: cell-based; conditions: MOLT-4
[18] = Oral bioavailability in Sprague-Dawley rat at 10 mg/kg administered as single dose; assay type: ADME, organism-based; conditions: in vivo
[19] = Half life in Sprague-Dawley rat at 10 mg/kg, iv administered as single dose; assay type: ADME, organism-based; design: dose 10 mg/kg, route intravenous; conditions: in vivo
[20] = Clearance in Sprague-Dawley rat at 10 mg/kg, iv administered as single dose; assay type: ADME, organism-based; design: dose 10 mg/kg, route intravenous; conditions: in vivo
[21] = Volume of distribution at steady state in Sprague-Dawley rat at 10 mg/kg, iv administered as single dose; assay type: ADME, organism-based; design: dose 10 mg/kg, route intravenous; conditions: in vivo
[22] = system: C-X-C chemokine receptor type 4 (Homo sapiens), P61073 [V99A]; assay: (§1) Inhibition of Mab 12G5 binding to CXCR4 V99A mutant expressed in HEK293 cells; assay type: cell-based
[23] = target: C-X-C chemokine receptor type 4 (Homo sapiens, UniProt P61073, V99A); assay: as §1; assay type: cell-based
[24] = system: C-X-C chemokine receptor type 4 (Homo sapiens), P61073 [D181A]; assay: (§2) Inhibition of Mab 12G5 binding to CXCR4 D181A mutant expressed in HEK293 cells; assay type: cell-based
[25] = target: C-X-C chemokine receptor type 4 (Homo sapiens, UniProt P61073, D181A); assay: as §2; assay type: cell-based
[26] = system: C-X-C chemokine receptor type 4 (Homo sapiens), P61073 [V280A]; assay: (§3) Inhibition of Mab 12G5 binding to CXCR4 V280A mutant expressed in HEK293 cells; assay type: cell-based
[27] = target: C-X-C chemokine receptor type 4 (Homo sapiens, UniProt P61073, V280A); assay: as §3; assay type: cell-based
[28] = system: C-X-C chemokine receptor type 4 (Homo sapiens), P61073 [H281A]; assay: (§4) Inhibition of Mab 12G5 binding to CXCR4 H281A mutant expressed in HEK293 cells; assay type: cell-based
[29] = target: C-X-C chemokine receptor type 4 (Homo sapiens, UniProt P61073, H281A); assay: as §4; assay type: cell-based
[30] = system: C-X-C chemokine receptor type 4 (Homo sapiens), P61073 [I284A]; assay: (§5) Inhibition of Mab 12G5 binding to CXCR4 I284A mutant expressed in HEK293 cells; assay type: cell-based
[31] = target: C-X-C chemokine receptor type 4 (Homo sapiens, UniProt P61073, I284A); assay: as §5; assay type: cell-based
[32] = target: C-X-C chemokine receptor type 4 (Homo sapiens, UniProt P61073, H113A)
[33] = target: C-X-C chemokine receptor type 4 (Homo sapiens, UniProt P61073, W283A)
[34] = target: C-X-C chemokine receptor type 4 (Homo sapiens, UniProt P61073, E288A/L290A)
[35] = Tmax in Sprague-Dawley rat at 10 mg/kg, po administered as single dose; conditions: in vivo
[36] = system: C-X-C chemokine receptor type 4 (Homo sapiens), P61073 [D171A]; conditions: HEK293
[37] = system: C-X-C chemokine receptor type 4 (Homo sapiens), P61073 [D262A]; conditions: HEK293
[38] = system: C-X-C chemokine receptor type 4 (Homo sapiens), P61073 [E277A]; conditions: HEK293
[39] = system: C-X-C chemokine receptor type 4 (Homo sapiens), P61073 [W283A]; conditions: HEK293
Chain of C-X-C chemokine receptor type 4 (Homo sapiens), P61073 [W283A] (P61073 whole entry W283A): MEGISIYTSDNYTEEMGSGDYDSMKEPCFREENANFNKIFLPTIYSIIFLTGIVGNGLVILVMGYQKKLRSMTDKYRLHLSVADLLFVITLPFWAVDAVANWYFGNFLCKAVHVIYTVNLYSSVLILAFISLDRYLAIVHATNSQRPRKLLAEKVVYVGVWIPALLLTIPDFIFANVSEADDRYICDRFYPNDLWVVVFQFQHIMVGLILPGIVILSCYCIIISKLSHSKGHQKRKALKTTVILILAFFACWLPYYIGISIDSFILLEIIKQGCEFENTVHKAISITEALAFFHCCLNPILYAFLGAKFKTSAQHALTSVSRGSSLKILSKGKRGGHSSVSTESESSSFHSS

T1 sequence (P61073 whole entry): as the sequence (P61073 whole entry W283A) above, with A283W counted along it
Chain of C-X-C chemokine receptor type 4 (Homo sapiens), P61073 [D171A] (P61073 whole entry D171A): as the sequence (P61073 whole entry W283A) above, with D171A, A283W counted along it
Chain of C-C chemokine receptor type 4 (Homo sapiens) (P51679 whole entry): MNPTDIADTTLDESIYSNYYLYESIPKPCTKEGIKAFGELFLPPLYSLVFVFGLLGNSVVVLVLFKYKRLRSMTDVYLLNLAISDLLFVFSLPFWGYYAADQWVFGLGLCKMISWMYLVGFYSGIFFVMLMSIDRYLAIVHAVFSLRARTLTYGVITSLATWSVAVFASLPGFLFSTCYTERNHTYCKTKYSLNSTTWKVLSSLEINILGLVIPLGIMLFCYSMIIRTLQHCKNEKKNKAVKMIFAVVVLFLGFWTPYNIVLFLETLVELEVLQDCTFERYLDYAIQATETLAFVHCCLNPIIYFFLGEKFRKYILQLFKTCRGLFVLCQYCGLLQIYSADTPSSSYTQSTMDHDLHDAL
Chain of C-X-C chemokine receptor type 4 (Homo sapiens), P61073 [E277A] (P61073 whole entry E277A): as the sequence (P61073 whole entry W283A) above, with E277A, A283W counted along it
Chain of C-X-C chemokine receptor type 4 (Homo sapiens), P61073 [I284A] (P61073 whole entry I284A): as the sequence (P61073 whole entry W283A) above, with A283W, I284A counted along it
Chain of C-X-C chemokine receptor type 4 (Homo sapiens, UniProt P61073, I284A) (P61073 whole entry I284A): as the sequence (P61073 whole entry W283A) above, with A283W, I284A counted along it
Chain of C-X-C chemokine receptor type 4 (Homo sapiens, UniProt P61073, E288A/L290A) (P61073 whole entry E288A/L290A): as the sequence (P61073 whole entry W283A) above, with A283W, E288A, L290A counted along it
Chain of C-X-C chemokine receptor type 4 (Homo sapiens, UniProt P61073, H281A) (P61073 whole entry H281A): as the sequence (P61073 whole entry W283A) above, with H281A, A283W counted along it
Chain of C-X-C chemokine receptor type 4 (Homo sapiens), P61073 [H281A] (P61073 whole entry H281A): as the sequence (P61073 whole entry W283A) above, with H281A, A283W counted along it
Chain of C-C chemokine receptor type 2 (Homo sapiens) (P41597 whole entry, looked up): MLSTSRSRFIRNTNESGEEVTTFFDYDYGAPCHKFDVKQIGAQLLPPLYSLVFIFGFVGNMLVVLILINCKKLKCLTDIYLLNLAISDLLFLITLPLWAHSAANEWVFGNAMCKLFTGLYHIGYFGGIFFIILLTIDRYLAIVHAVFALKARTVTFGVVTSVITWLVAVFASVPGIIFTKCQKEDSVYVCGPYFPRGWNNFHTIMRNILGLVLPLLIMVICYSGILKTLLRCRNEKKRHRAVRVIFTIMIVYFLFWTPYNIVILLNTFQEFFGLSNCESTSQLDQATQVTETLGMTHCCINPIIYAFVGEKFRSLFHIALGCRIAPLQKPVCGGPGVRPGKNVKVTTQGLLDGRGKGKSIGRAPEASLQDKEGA
Chain of C-X-C chemokine receptor type 4 (Homo sapiens), P61073 [V280A] (P61073 whole entry V280A): as the sequence (P61073 whole entry W283A) above, with V280A, A283W counted along it
Chain of C-X-C chemokine receptor type 4 (Homo sapiens, UniProt P61073, V280A) (P61073 whole entry V280A): as the sequence (P61073 whole entry W283A) above, with V280A, A283W counted along it
Chain of C-C chemokine receptor type 1 (Homo sapiens) (P32246 whole entry): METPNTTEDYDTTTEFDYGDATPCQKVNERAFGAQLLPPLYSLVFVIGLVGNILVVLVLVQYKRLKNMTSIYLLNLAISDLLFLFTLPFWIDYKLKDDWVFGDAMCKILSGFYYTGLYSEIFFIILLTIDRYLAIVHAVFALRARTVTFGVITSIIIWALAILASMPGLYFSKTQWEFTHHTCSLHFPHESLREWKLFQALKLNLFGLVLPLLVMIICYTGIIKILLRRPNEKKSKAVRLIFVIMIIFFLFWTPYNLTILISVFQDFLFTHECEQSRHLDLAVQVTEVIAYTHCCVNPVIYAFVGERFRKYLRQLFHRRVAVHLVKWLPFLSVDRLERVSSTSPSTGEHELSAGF
Chain of C-X-C chemokine receptor type 4 (Homo sapiens, UniProt P61073, W283A) (P61073 whole entry W283A): as the sequence (P61073 whole entry W283A) above
Chain of C-X-C chemokine receptor type 4 (Homo sapiens, UniProt P61073, H113A) (P61073 whole entry H113A): as the sequence (P61073 whole entry W283A) above, with H113A, A283W counted along it
Chain of C-C chemokine receptor type 5 (Homo sapiens) (P51681 whole entry, looked up): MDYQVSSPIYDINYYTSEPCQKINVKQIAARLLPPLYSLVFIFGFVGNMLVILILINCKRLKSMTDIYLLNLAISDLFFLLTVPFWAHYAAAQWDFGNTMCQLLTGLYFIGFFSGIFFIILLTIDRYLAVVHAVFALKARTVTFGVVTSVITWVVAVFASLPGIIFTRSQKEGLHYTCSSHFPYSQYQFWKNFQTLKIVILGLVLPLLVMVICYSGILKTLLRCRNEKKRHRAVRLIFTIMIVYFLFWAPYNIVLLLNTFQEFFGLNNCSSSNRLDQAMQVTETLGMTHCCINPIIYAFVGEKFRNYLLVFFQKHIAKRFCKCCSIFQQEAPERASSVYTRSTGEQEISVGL
Chain of C-X-C chemokine receptor type 1 (Homo sapiens) (P25024 whole entry): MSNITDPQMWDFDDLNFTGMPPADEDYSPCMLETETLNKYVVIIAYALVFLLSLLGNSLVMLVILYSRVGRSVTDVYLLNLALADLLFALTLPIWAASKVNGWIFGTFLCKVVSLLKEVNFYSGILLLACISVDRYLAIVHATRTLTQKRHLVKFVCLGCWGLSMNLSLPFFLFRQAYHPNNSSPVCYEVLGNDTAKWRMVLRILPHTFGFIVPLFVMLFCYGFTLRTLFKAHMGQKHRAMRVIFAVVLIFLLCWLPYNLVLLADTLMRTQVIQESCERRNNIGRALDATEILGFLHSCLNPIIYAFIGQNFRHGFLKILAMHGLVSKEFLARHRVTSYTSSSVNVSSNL
Chain of C-X-C chemokine receptor type 4 (Homo sapiens), P61073 [V99A] (P61073 whole entry V99A): as the sequence (P61073 whole entry W283A) above, with V99A, A283W counted along it
Chain of C-X-C chemokine receptor type 4 (Homo sapiens, UniProt P61073, V99A) (P61073 whole entry V99A): as the sequence (P61073 whole entry W283A) above, with V99A, A283W counted along it
Chain of C-X-C chemokine receptor type 4 (Homo sapiens), P61073 [D262A] (P61073 whole entry D262A): as the sequence (P61073 whole entry W283A) above, with D262A, A283W counted along it
Chain of C-X-C chemokine receptor type 4 (Homo sapiens), P61073 [D181A] (P61073 whole entry D181A): as the sequence (P61073 whole entry W283A) above, with D181A, A283W counted along it
Chain of C-X-C chemokine receptor type 4 (Homo sapiens, UniProt P61073, D181A) (P61073 whole entry D181A): as the sequence (P61073 whole entry W283A) above, with D181A, A283W counted along it

Structure (SMILES): CCCN(CCC)CCCCN(C)Cc1ccc(CN(Cc2ncc[nH]2)Cc2nccn2C)cc1.O=C(O)C(O)C(O)C(=O)O
- EC50 [1]: 0.38 nM
- EC50 [2]: 1.4 nM
- IC50 [3]: 0.5 nM
- IC50 [4]: 0.6 nM
- IC50 [5]: 0.6 nM
- IC50 [6]: 0.8 nM
- IC50 [7]: 0.7 nM
- Activity [8]: Dose-dependent effect
- IC50 [8]: 0.61 nM
- IC50 [9]: 0.7 nM
- IC50 [10]: 0.4 nM
- Activity [11]: inactive
- Activity [12]: inactive
- Activity [13]: inactive
- Activity [14]: inactive
- Activity [15]: inactive
- inhibition [16]: Active
- inhibition [17]: 40%
- bioavailability [18]: 25.6%
- half-life [19]: 99 h
- clearance [20]: 65 mL/min/kg
- Vd [21]: 374 L/kg
- IC90 [22]: 7.4 nM
- IC50 [23]: 1.5 nM
- IC90 [24]: 5.1 nM
- IC50 [25]: 0.5 nM
- IC90 [26]: 6.1 nM
- IC50 [27]: 1 nM
- IC90 [28]: 248 nM
- IC50 [29]: 14.1 nM
- IC90 [30]: 6.8 nM
- IC50 [31]: 1.2 nM
- IC50 [32]: 0.8 nM
- IC50 [33]: 1.3 nM
- IC50 [34]: 1.6 nM
- Tmax [35]: 2.3 h
- IC90 [36]: > 10 nM
- IC90 [37]: 8.1 nM
- IC90 [38]: 8.7 nM
- IC90 [39]: 6.9 nM

From ChEMBL document CHEMBL1649540, “The novel CXCR4 antagonist KRH-3955 is an orally bioavailable and extremely potent inhibitor of human immunodeficiency virus type 1 infection: comparative studies with AMD3100” (Antimicrob Agents Chemother, 2009)
